PubChem BioAssay AID1963842 (Molecular Pharmacology Branch, DTP, NCI, 2024)
Where “and” joins values, the source holds several entries; their conditions need not be identical. Equal entries are not always repeated.

System: 677734-321-R-J1-PDC complex spheroid viability
Experiment: Anticancer human tumor 677734-321-R-J1-PDC patient-derived soft tissue sarcoma cell line growth inhibition [POLQ]
Settings: for viability, T/C: stronger effect = lower value
Description: Multicellular complex tumor spheroid response to Polymerase (POL) inhibitors (novobiocin, ART-558, RP6685) in combination with a variety of drugs and investigational agents in selected tumor cell lines
The POL inhibitors (novobiocin, ART-558, and RP6685) were evaluated both individually and in combination with standard of care and investigational anticancer small molecules within a complex spheroid model of solid tumors. . Complex spheroids include a stromal component modeled by human endothelial cells (HUVEC) and fibroblasts modeled by human mesenchymal stem cells (MSCs). The concentration ranges selected for each drug and investigational agent were based upon clinically achievable concentrations if the clinical Cmax of the agent was known.
Compounds. The drugs and investigational agents: novobiocin (NSC847541), ART-558 (NSC835418), RP-6685 (NSC848927), peposertib (NSC802822), ceralasertib (NSC780249), elimusertib (NSC800525), camonsertib (NSC841442), AZD-1390 (NSC803789), olaparib (NSC753686), talazoparib (NSC767125), rucaparib (NSC756644), sotorasib (NSC818433), MRTX-1133 (NSC836407), SN-38 (NSC673596), topotecan (NSC609699), epotoside (NSC141540), doxorubicin (NSC123127), gemcitabine (NSC613327), 5-fluorouracil (NSC19893), paclitaxel (NSC125973), vemurafenib (NSC761431), MSA-2 (NSC828583), SN-011 (NSC837082), adavosertib (NSC754352), prexasertib (NSC758257), carboplatin (NSC241240) and oxaliplatin (NSC266046), were obtained from the National Cancer Institute (NCI) Developmental Therapeutics Program Chemical Repository (21). The FDA-approved anticancer drug set is available from the Developmental Therapeutics Program at https://dtp.cancer.gov/organization/dscb/obtaining/. […] The stock solutions were prepared in dimethyl sulfoxide (DMSO, Sigma-Aldrich, St. Louis, MO, cat. D2650), except for the platinum compounds which were prepared in saline (Quality Biological, Gaithersburg, MD, cat. 114-055-101), at 800-fold the tested concentration and stored at -70 degrees C prior to their use. All drugs and investigational agents were tested over a range starting from a high concentration at or near the clinical Cmax and decreasing in half-log increments. If the clinical Cmax for an agent had not been determined, the highest concentration tested was 10 microM, except for SN-38, which was tested at a high concentration of 1 microM.
Cell Culture. All cells were maintained in an incubator at 37 degrees C and 5% CO2 with 95% humidity. The PDC lines were cultured according to standard operating procedures established by the NCI PDMR (https://pdmr.cancer.gov). Table 3 of the manuscript, lists the cell lines along with the number of the three cell types plated to form the mct-spheroids and media for tumor cell growth. After thawing, all PDC lines, except 997537-175-T-J1-PDC and 415267-285-R-J2-PDC, were cultured in Matrigel-coated flasks prepared with a working solution of 1X Ham's F-12 nutrient mix, without supplementation (Thermo Fisher Scientific, cat. 11765054), 100 U/mL penicillin-streptomycin (Thermo Fisher Scientific, cat. 15140122), and 2.5% Matrigel (Corning Inc., Corning, NY, cat. 354248) for the first three passages. The two PDC lines 997537-175-T-J1-PDC and 415267-285-R-J2-PDC were cultured on uncoated flasks. The 857933-349-R-J2-PDC line was cultured in 6C/Colon 1B media containing advanced DMEM/F-12 (Thermo Fisher Scientific, cat. 12634028), 10 mM HEPES (Thermo Fisher Scientific, cat. 15630080), 1X GlutaMAX supplement (Thermo Fisher Scientific, cat. 35050061), 0.1 mg/mL primocin (InvivoGen, San Diego, CA, cat. ant-pm-2), 10% defined fetal bovine serum, heat inactivated (HyClone Laboratories Inc., Logan, UT, cat. SH30070.03HI), 50% L-WRN conditioned media (ATCC, cat. CRL-3276), 1.25 mM N-Acetyl-L-cysteine (Sigma-Aldrich, cat. A9165), 10 mM nicotinamide (Sigma-Aldrich, cat. N0636), 1X B-27 supplement (Thermo Fisher Scientific, cat. 17504044), 1X N-2 supplement (Thermo Fisher Scientific, cat. […]

[1] = curve of first compound, second compound 0.0316 µM
[2] = curve of first compound, second compound 0.1 µM
[3] = curve of first compound, second compound 0.316 µM
[4] = curve of first compound, second compound 1 µM
[5] = curve of first compound, second compound 3.16 µM
[6] = curve of first compound, second compound 10 µM
[7] = second compound 0.0316 µM, first compound 0.0316 µM
[8] = second compound 0.0316 µM, first compound 0.1 µM
[9] = second compound 0.0316 µM, first compound 0.316 µM
[10] = second compound 0.0316 µM, first compound 1 µM
[11] = second compound 0.0316 µM, first compound 3.16 µM
[12] = second compound 0.0316 µM, first compound 10 µM
[13] = second compound 0.1 µM, first compound 0.0316 µM
[14] = second compound 0.1 µM, first compound 0.1 µM
[15] = second compound 0.1 µM, first compound 0.316 µM
[16] = second compound 0.1 µM, first compound 1 µM
[17] = second compound 0.1 µM, first compound 3.16 µM
[18] = second compound 0.1 µM, first compound 10 µM
[19] = second compound 0.316 µM, first compound 0.0316 µM
[20] = second compound 0.316 µM, first compound 0.1 µM
[21] = second compound 0.316 µM, first compound 0.316 µM
[22] = second compound 0.316 µM, first compound 1 µM
[23] = second compound 0.316 µM, first compound 3.16 µM
[24] = second compound 0.316 µM, first compound 10 µM
[25] = second compound 1 µM, first compound 0.0316 µM
[26] = second compound 1 µM, first compound 0.1 µM
[27] = second compound 1 µM, first compound 0.316 µM
[28] = second compound 1 µM, first compound 1 µM
[29] = second compound 1 µM, first compound 3.16 µM
[30] = second compound 1 µM, first compound 10 µM
[31] = second compound 3.16 µM, first compound 0.0316 µM
[32] = second compound 3.16 µM, first compound 0.1 µM
[33] = second compound 3.16 µM, first compound 0.316 µM
[34] = second compound 3.16 µM, first compound 1 µM
[35] = second compound 3.16 µM, first compound 3.16 µM
[36] = second compound 3.16 µM, first compound 10 µM
[37] = second compound 10 µM, first compound 0.0316 µM
[38] = second compound 10 µM, first compound 0.1 µM
[39] = second compound 10 µM, first compound 0.316 µM
[40] = second compound 10 µM, first compound 1 µM
[41] = second compound 10 µM, first compound 3.16 µM
[42] = second compound 10 µM, first compound 10 µM
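Also: spheroids exposed to compounds for one week.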
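For viability, T/C in this document: 100% = vehicle DMSO treated spheroids.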

## CC1COCCN1c1cc(C2(S(C)(=N)=O)CC2)nc(-c2ccnc3[nH]ccc23)n1 (stereo not drawn) + COC1C(OC(N)=O)C(O)C(Oc2ccc3c(O)c(NC(=O)c4ccc(O)c(CC=C(C)C)c4)c(=O)oc3c2C)OC1(C)C
[1]
  IC50: 5.96 µM
[2]
  IC50: 4.24 µM
[3]
  IC50: 3.12 µM
[4]
  IC50: 4.67 µM
[5]
  IC50: 3.85 µM
[6]
  IC50: 3.85 µM
[7]
  viability, T/C: 109%
[8]
  viability, T/C: 117%
[9]
  viability, T/C: 95.5%
[10]
  viability, T/C: 101%
[11]
  viability, T/C: 62.4%
[12]
  viability, T/C: 39.5%
[13]
  viability, T/C: 110%
[14]
  viability, T/C: 113%
[15]
  viability, T/C: 106%
[16]
  viability, T/C: 93%
[17]
  viability, T/C: 58.7%
[18]
  viability, T/C: 24.3%
[19]
  viability, T/C: 109%
[20]
  viability, T/C: 104%
[21]
  viability, T/C: 104%
[22]
  viability, T/C: 91.1%
[23]
  viability, T/C: 49.5%
[24]
  viability, T/C: 18.5%
[25]
  viability, T/C: 112%
[26]
  viability, T/C: 98.7%
[27]
  viability, T/C: 100%
[28]
  viability, T/C: 92.2%
[29]
  viability, T/C: 62.3%
[30]
  viability, T/C: 24.3%
[31]
  viability, T/C: 109%
[32]
  viability, T/C: 104%
[33]
  viability, T/C: 99.6%
[34]
  viability, T/C: 98.8%
[35]
  viability, T/C: 55.5%
[36]
  viability, T/C: 22.9%
[37]
  viability, T/C: 108%
[38]
  viability, T/C: 107%
[39]
  viability, T/C: 106%
[40]
  viability, T/C: 92%
[41]
  viability, T/C: 56%
[42]
  viability, T/C: 21.6%

## CC(=O)O[C@H]1C(=O)[C@@]2(C)[C@H]([C@H](OC(=O)c3ccccc3)[C@]3(O)C[C@H](OC(=O)[C@H](O)[C@@H](NC(=O)c4ccccc4)c4ccccc4)C(C)=C1C3(C)C)[C@]1(OC(C)=O)CO[C@@H]1C[C@@H]2O
Compound 0.00949 µM
  viability, T/C: 22% and 35.2% and 37.8%
Compound 0.03 µM
  viability, T/C: 13.4% and 15.2% and 19.2%
Compound 0.0949 µM
  viability, T/C: 12.7% and 15.9% and 17.6%
Compound 0.3 µM
  viability, T/C: 11.9% and 12.5% and 14.8%
Compound 0.949 µM
  viability, T/C: 14.2% and 12.4% and 14.5%
Compound 3 µM
  viability, T/C: 13.1% and 16.4% (2×)
Curve of compound
  IC50: < 0.00949 µM

## CC1COCCN1c1cc(C2(O)CC3CCC(C2)O3)c2cnn(-c3ccn[nH]3)c2n1 (stereo not drawn) + Nc1ccc(C#CCN(C(=O)Cc2ncc(C(F)(F)F)cc2C(F)(F)F)c2ccc(F)cc2)nn1
[1]
  IC50: < 0.0316 µM
[2]
  IC50: < 0.0316 µM
[3]
  IC50: < 0.0316 µM
[4]
  IC50: < 0.0316 µM
[5]
  IC50: < 0.0316 µM
[6]
  IC50: < 0.0316 µM
[7]
  viability, T/C: 36.8%
[8]
  viability, T/C: 20.4%
[9]
  viability, T/C: 7.94%
[10]
  viability, T/C: 7.29%
[11]
  viability, T/C: 8.37%
[12]
  viability, T/C: 6.3%
[13]
  viability, T/C: 48.2%
[14]
  viability, T/C: 15%
[15]
  viability, T/C: 10.1%
[16]
  viability, T/C: 7.88%
[17]
  viability, T/C: 10.1%
[18]
  viability, T/C: 7.23%
[19]
  viability, T/C: 35.1%
[20]
  viability, T/C: 11.7%
[21]
  viability, T/C: 8.93%
[22]
  viability, T/C: 7.29%
[23]
  viability, T/C: 7.85%
[24]
  viability, T/C: 6.34%
[25]
  viability, T/C: 44.7%
[26]
  viability, T/C: 15.9%
[27]
  viability, T/C: 8.7%
[28]
  viability, T/C: 7.59%
[29]
  viability, T/C: 8.26%
[30]
  viability, T/C: 6%
[31]
  viability, T/C: 45.2%
[32]
  viability, T/C: 12.9%
[33]
  viability, T/C: 10%
[34]
  viability, T/C: 8.6%
[35]
  viability, T/C: 8.2%
[36]
  viability, T/C: 4.99%
[37]
  viability, T/C: 35.5%
[38]
  viability, T/C: 26.6%
[39]
  viability, T/C: 7.13%
[40]
  viability, T/C: 10.5%
[41]
  viability, T/C: 7.26%
[42]
  viability, T/C: 11.5%

## CNCc1ccc(-c2[nH]c3cc(F)cc4c3c2CCNC4=O)cc1
Compound 0.0316 µM
  viability, T/C: 105% and 107% and 106%
Compound 0.1 µM
  viability, T/C: 101% and 75.4% and 97.1%
Compound 0.316 µM
  viability, T/C: 102% and 106% and 99.2%
Compound 1 µM
  viability, T/C: 101% and 99.7% and 105%
Compound 3.16 µM
  viability, T/C: 108% and 101% and 99%
Compound 10 µM
  viability, T/C: 106% and 82.2% and 88.9%
Curve of compound
  IC50: > 10 µM
